Reference: patent US9708314B2, “Heterocyclic amide compound” (NISSAN CHEMICAL INDUSTRIES, LTD., priority 2013, dated 2017)

Tests used:
Assay type in all cases: in vivo
Triticum aestivum = experiment: Test Example 4: effect on crop by application to foliage (diluvial soil, plastic box); conditions: application to foliage; for effect on crop, e (Triticum aestivum): 320 g/ha
Source text: (§1) 5 Herbicidal ratio of 90% or more (almost completely withered) 4 Herbicidal ratio of 70% or more and less than 90% 3 Herbicidal ratio of 40% or more and less than 70% 2 Herbicidal ratio of 20% or more and less than 40% 1 Herbicidal ratio of 5% or more and less than 20% 0 Herbicidal ratio of 5% or less (almost no effect) [Test Example 4] Herbicidal Effect Test by Application to Foliage Sterilized diluvial soil was placed in a plastic box having a length of 21 cm, a width of 13 cm, and a depth of 7 cm. Each of the seeds of Digitaria ciliaris, Setaria viridis, Echinochloa crus-galli var. crus-galli, Avena fatua, Alopecurus myosuroides, Lolium multiflorum Lam., Apera spica-venti., Abutilon theophrasti, Amaranthus retroflexus, Chenopodium album, Stellaria media, Galium spurium, Veronica persica, Zea mays, Glycine max, Oryza sativa, Triticum aestivum, Beta vulgaris ssp. vulgaris, and Brassica campestris L. was sowed in a spot-like manner and was covered with the soil of about 1.5 cm thick. Thereafter, the plants were grown in the greenhouse of 25° C. to 30° C. After the plants were grown for 14 days, the emulsion agent containing the compound of the present invention prepared in accordance with Formulation Example 2 was diluted with water so as to be a predetermined herbicide amount and the diluted compound was uniformly applied to a stem and leaf part with a small-size spray. Three weeks after the herbicide application, effects on each plant were investigated in accordance with the criteria of Test Example 1. A: Echinochloa oryzicola Vasing., B: Scirpus juncoides, C: Monochoria vaginalis, D: Leptochloa chinensis, E: Cyperus difformis, F: Digitaria ciliaris, G: Setaria viridis, H: Echinochloa crus-galli var. crus-galli, I: Avena fatua, J: Alopecurus myosuroides, K: Lolium multiflorum Lam., L: Apera spica-venti., M: Abutilon theophrasti, N: Amaranthus retroflexus, O: Chenopodium album, P: Stellaria media, Q: Galium spurium, R: Veronica persica, a: transplanted Oryza sativa, b: directly sowed Oryza sativa, c: Zea mays, d: Glycine max, e: Triticum aestivum, f: Beta vulgaris ssp. vulgaris, and g: Brassica campestris L. The application herbicide amount (g/ha) means an amount that a concentration is adjusted so that, when an application amount is converted into per hectare (1 ha), the herbicide is applied by the number of grams (g) of the described value.

[1] = tested on: directly sowed Oryza sativa; experiment: as above; conditions: application to foliage; for effect on crop, d (directly sowed Oryza sativa): 320 g/ha
Source text: as §1

Brassica campestris L. = experiment: as above; conditions: application to foliage; for effect on crop, g (Brassica campestris L.): 320 g/ha
Source text: as §1

Zea mays = experiment: as above; conditions: application to foliage; for effect on crop, b (Zea mays): 320 g/ha
Source text: as §1

[2] = tested on: Beta vulgaris ssp. vulgaris; experiment: as above; conditions: application to foliage; for effect on crop, f (Beta vulgaris ssp. vulgaris): 320 g/ha
Source text: as §1

Glycine max = experiment: as above; conditions: application to foliage; for effect on crop, c (Glycine max): 320 g/ha
Source text: as §1

Lolium multiflorum Lam. = experiment: Test Example 4: herbicidal effect by application to foliage (diluvial soil, plastic box); conditions: application to foliage; for herbicidal effect, K (Lolium multiflorum Lam.): 320 g/ha
Source text: as §1

Digitaria ciliaris = experiment: as above; conditions: application to foliage; for herbicidal effect, F (Digitaria ciliaris): 320 g/ha
Source text: as §1

Stellaria media = experiment: as above; conditions: application to foliage; for herbicidal effect, P (Stellaria media): 320 g/ha
Source text: as §1

Apera spica-venti. = experiment: as above; conditions: application to foliage; for herbicidal effect, L (Apera spica-venti.): 320 g/ha
Source text: as §1

[3] = tested on: Echinochloa crus-galli var. crus-galli; experiment: as above; conditions: application to foliage; for herbicidal effect, H (Echinochloa crus-galli var. crus-galli): 320 g/ha
Source text: as §1

Avena fatua = experiment: as above; conditions: application to foliage; for herbicidal effect, I (Avena fatua): 320 g/ha
Source text: as §1

Amaranthus retroflexus = experiment: as above; conditions: application to foliage; for herbicidal effect, N (Amaranthus retroflexus): 320 g/ha
Source text: as §1

Abutilon theophrasti = experiment: as above; conditions: application to foliage; for herbicidal effect, M (Abutilon theophrasti): 320 g/ha
Source text: as §1

Alopecurus myosuroides = experiment: as above; conditions: application to foliage; for herbicidal effect, J (Alopecurus myosuroides): 320 g/ha
Source text: as §1

Chenopodium album = experiment: as above; conditions: application to foliage; for herbicidal effect, O (Chenopodium album): 320 g/ha
Source text: as §1

Veronica persica = experiment: as above; conditions: application to foliage; for herbicidal effect, R (Veronica persica): 320 g/ha
Source text: as §1

Setaria viridis = experiment: as above; conditions: application to foliage; for herbicidal effect, G (Setaria viridis): 320 g/ha
Source text: as §1

Galium spurium = experiment: as above; conditions: application to foliage; for herbicidal effect, Q (Galium spurium): 320 g/ha
Source text: as §1

[4] = application herbicide amount 320 g/ha

## CCn1nc2c(C(=O)Nc3nonc3C)ccc(C(F)(F)F)n2c1=O [6-008]
Triticum aestivum
  effect on crop, e (Triticum aestivum): 0 (Herbicidal ratio of 5% or less (almost no effect))
[1]
  effect on crop, d (directly sowed Oryza sativa): 1 (Herbicidal ratio of 5% or more and less than 20%)
Brassica campestris L.
  effect on crop, g (Brassica campestris L.): 0 (Herbicidal ratio of 5% or less (almost no effect))
Zea mays
  effect on crop, b (Zea mays): 0 (Herbicidal ratio of 5% or less (almost no effect))
[2]
  effect on crop, f (Beta vulgaris ssp. vulgaris): 1 (Herbicidal ratio of 5% or more and less than 20%)
Glycine max
  effect on crop, c (Glycine max): 0 (Herbicidal ratio of 5% or less (almost no effect))
Lolium multiflorum Lam.
  herbicidal effect, K (Lolium multiflorum Lam.): 0 (Herbicidal ratio of 5% or less (almost no effect))
Digitaria ciliaris
  herbicidal effect, F (Digitaria ciliaris): 0 (Herbicidal ratio of 5% or less (almost no effect))
Stellaria media
  herbicidal effect, P (Stellaria media): 1 (Herbicidal ratio of 5% or more and less than 20%)
Apera spica-venti.
  herbicidal effect, L (Apera spica-venti.): 0 (Herbicidal ratio of 5% or less (almost no effect))
[3]
  herbicidal effect, H (Echinochloa crus-galli var. crus-galli): 0 (Herbicidal ratio of 5% or less (almost no effect))
Avena fatua
  herbicidal effect, I (Avena fatua): 0 (Herbicidal ratio of 5% or less (almost no effect))
Amaranthus retroflexus
  herbicidal effect, N (Amaranthus retroflexus): 0 (Herbicidal ratio of 5% or less (almost no effect))
Abutilon theophrasti
  herbicidal effect, M (Abutilon theophrasti): 1 (Herbicidal ratio of 5% or more and less than 20%)
Alopecurus myosuroides
  herbicidal effect, J (Alopecurus myosuroides): 0 (Herbicidal ratio of 5% or less (almost no effect))
Chenopodium album
  herbicidal effect, O (Chenopodium album): 3 (Herbicidal ratio of 40% or more and less than 70%)
Veronica persica
  herbicidal effect, R (Veronica persica): 0 (Herbicidal ratio of 5% or less (almost no effect))
Setaria viridis
  herbicidal effect, G (Setaria viridis): 0 (Herbicidal ratio of 5% or less (almost no effect))
Galium spurium
  herbicidal effect, Q (Galium spurium): 0 (Herbicidal ratio of 5% or less (almost no effect))

## CC(C)c1nnc2c(C(=O)Nc3ncnn3C)ccc(C(F)(F)F)n12 [4-001]
Triticum aestivum
  effect on crop, e (Triticum aestivum): 0 (Herbicidal ratio of 5% or less (almost no effect))
[1]
  effect on crop, d (directly sowed Oryza sativa): 2 (Herbicidal ratio of 20% or more and less than 40%)
Brassica campestris L.
  effect on crop, g (Brassica campestris L.): 0 (Herbicidal ratio of 5% or less (almost no effect))
Zea mays
  effect on crop, b (Zea mays): 0 (Herbicidal ratio of 5% or less (almost no effect))
[2]
  effect on crop, f (Beta vulgaris ssp. vulgaris): 2 (Herbicidal ratio of 20% or more and less than 40%)
Glycine max
  effect on crop, c (Glycine max): 0 (Herbicidal ratio of 5% or less (almost no effect))
Lolium multiflorum Lam.
  herbicidal effect, K (Lolium multiflorum Lam.): 0 (Herbicidal ratio of 5% or less (almost no effect))
Digitaria ciliaris
  herbicidal effect, F (Digitaria ciliaris): 1 (Herbicidal ratio of 5% or more and less than 20%)
Stellaria media
  herbicidal effect, P (Stellaria media): 3 (Herbicidal ratio of 40% or more and less than 70%)
Apera spica-venti.
  herbicidal effect, L (Apera spica-venti.): 0 (Herbicidal ratio of 5% or less (almost no effect))
[3]
  herbicidal effect, H (Echinochloa crus-galli var. crus-galli): 3 (Herbicidal ratio of 40% or more and less than 70%)
Avena fatua
  herbicidal effect, I (Avena fatua): 1 (Herbicidal ratio of 5% or more and less than 20%)
Amaranthus retroflexus
  herbicidal effect, N (Amaranthus retroflexus): 5 (Herbicidal ratio of 90% or more (almost completely withered))
Abutilon theophrasti
  herbicidal effect, M (Abutilon theophrasti): 5 (Herbicidal ratio of 90% or more (almost completely withered))
Alopecurus myosuroides
  herbicidal effect, J (Alopecurus myosuroides): 0 (Herbicidal ratio of 5% or less (almost no effect))
Chenopodium album
  herbicidal effect, O (Chenopodium album): 5 (Herbicidal ratio of 90% or more (almost completely withered))
Veronica persica
  herbicidal effect, R (Veronica persica): 3 (Herbicidal ratio of 40% or more and less than 70%)
Setaria viridis
  herbicidal effect, G (Setaria viridis): 2 (Herbicidal ratio of 20% or more and less than 40%)
Galium spurium
  herbicidal effect, Q (Galium spurium): 3 (Herbicidal ratio of 40% or more and less than 70%)

## CC#Cc1nnc2c(C(=O)Nc3nnco3)ccc(C(F)(F)F)n12 [1-160]
Triticum aestivum; [4]
  e: effect on crop, Triticum aestivum: 0 (Herbicidal ratio of 5% or less (almost no effect))
[1]; [4]
  b: effect on crop, directly sowed Oryza sativa: 0 (Herbicidal ratio of 5% or less (almost no effect))
Brassica campestris L.; [4]
  g: effect on crop, Brassica campestris L.: 0 (Herbicidal ratio of 5% or less (almost no effect))
Zea mays; [4]
  c: effect on crop, Zea mays: 0 (Herbicidal ratio of 5% or less (almost no effect))
[2]; [4]
  f: effect on crop, Beta vulgaris ssp. vulgaris: 2 (Herbicidal ratio of 20% or more and less than 40%)
Glycine max; [4]
  d: effect on crop, Glycine max: 2 (Herbicidal ratio of 20% or more and less than 40%)
Lolium multiflorum Lam.; [4]
  K: herbicidal effect on Lolium multiflorum Lam.: 0 (Herbicidal ratio of 5% or less (almost no effect))
Digitaria ciliaris; [4]
  F: herbicidal effect on Digitaria ciliaris: 1 (Herbicidal ratio of 5% or more and less than 20%)
Stellaria media; [4]
  P: herbicidal effect on Stellaria media: 3 (Herbicidal ratio of 40% or more and less than 70%)
Apera spica-venti.; [4]
  L: herbicidal effect on Apera spica-venti.: 0 (Herbicidal ratio of 5% or less (almost no effect))
[3]; [4]
  H: herbicidal effect on Echinochloa crus-galli var. crus-galli: 2 (Herbicidal ratio of 20% or more and less than 40%)
Avena fatua; [4]
  I: herbicidal effect on Avena fatua: 0 (Herbicidal ratio of 5% or less (almost no effect))
Amaranthus retroflexus; [4]
  N: herbicidal effect on Amaranthus retroflexus: 1 (Herbicidal ratio of 5% or more and less than 20%)
Abutilon theophrasti; [4]
  M: herbicidal effect on Abutilon theophrasti: 3 (Herbicidal ratio of 40% or more and less than 70%)
Alopecurus myosuroides; [4]
  J: herbicidal effect on Alopecurus myosuroides: 0 (Herbicidal ratio of 5% or less (almost no effect))
Chenopodium album; [4]
  O: herbicidal effect on Chenopodium album: 4 (Herbicidal ratio of 70% or more and less than 90%)
Veronica persica; [4]
  R: herbicidal effect on Veronica persica: 1 (Herbicidal ratio of 5% or more and less than 20%)
Setaria viridis; [4]
  G: herbicidal effect on Setaria viridis: 0 (Herbicidal ratio of 5% or less (almost no effect))
Galium spurium; [4]
  Q: herbicidal effect on Galium spurium: 0 (Herbicidal ratio of 5% or less (almost no effect))
